# Source: patent US20230096766A1, “AMINO ACID HAVING FUNCTIONAL GROUP CAPABLE OF INTERMOLECULAR HYDROGEN BONDING, PEPTIDE COMPOUND CONTAINING SAME AND METHOD FOR PRODUCTION THEREOF” (Chugai Seiyaku Kabushiki Kaisha, priority 2018, published 2023)
# *1 amine or outer side, *2 acyl side, *3 side chain or, on linkers, in order; H or OH if unused. Where a SMILES comes first, the peptide text is derived from it. Bridges are numbered along the chain shown (N, C = ends). [ ]: non-standard residue; d: D form. The star is where a group is joined. ξ: configuration not given here. Phe(3-OMe,4-CONHMs) = COc1cc(C[C@H](N)C(=O)O)ccc1C(=O)NS(C)(=O)=O; NMeHph(3-OMe-4-CONHMe) = CNC(=O)c1ccc(CC[C@H](NC)C(=O)O)cc1OC; hPhe(3-OMe,4-CONHMe) = CNC(=O)c1ccc(CC[C@H](N)C(=O)O)cc1OC; Phe(3-CONHMe,4-OMe) = CNC(=O)c1cc(C[C@H](N)C(=O)O)ccc1OC; NMeAbu(4-morpholino) = CN[C@@H](CCN1CCOCC1)C(=O)O; X1 = COc1cc(C[C@H](N[*:1])C(=O)[*:2])ccc1C(=O)NO; NMePhe(3-Cl) = CN[C@@H](Cc1cccc(Cl)c1)C(=O)O; NMehPhe = CN[C@@H](CCc1ccccc1)C(=O)O; X9 = O=C([C@@H](CN[*:1])COCCO)[*:2]; Propyl(2,2-Me2,3-OH) = CC(C)(CO)C*; X6 = O=C([C@H](CCCCO)N[*:1])[*:2]; NMeF = CN[C@@H](Cc1ccccc1)C(=O)O; NMeGABA = CN(CCCC(=O)[*:2])[*:1]; NMeI = CC[C@H](C)[C@H](NC)C(=O)O; ξThr(3R) = C[C@@H](O)C(N)C(=O)O; CH2CH(OH)CF3 = OC(C*)C(F)(F)F; NMeL = CN[C@@H](CC(C)C)C(=O)O; ξNMeF = CNC(Cc1ccccc1)C(=O)O; NMeV = CN[C@H](C(=O)O)C(C)C; NMeAbu = CC[C@H](NC)C(=O)O; NMeA = CN[C@@H](C)C(=O)O; Piperidide = C1CCN(*)CC1; NBuGly = CCCCNCC(=O)O; NPrGly = CCCNCC(=O)O; Propyl(3-OH) = OCCC*; Ethyl(2-OH) = OCC*; Sar = CNCC(=O)O; tBu = CC(C)(C)*
# Test: in vitro
# Conditions: human
SMILES,"Papp (Caco-2, Caco-2 (cm/sec)) [×10⁻⁶ cm/s]",other results
"CNC(=O)c1ccc(CC[C@@H]2NC(=O)[C@H](CC(C)C)N(C)C(=O)CN(C)C(=O)[C@H]([C@@H](C)O)NC(=O)[C@H](CC(C)C)N(C)C(=O)[C@H](CC(C)C)NC(=O)[C@H](Cc3ccccc3)N(C)C(=O)[C@@H](C(C)C)NC(=O)C[C@@H](C(=O)N3CCCCC3)NC(=O)[C@H](CC(C)C)N(C)C(=O)[C@H](CC(C)C)N(C)C2=O)cc1OC [AP200] ([dV][NMeF]L[NMeL]T[Sar][NMeL][hPhe(3-OMe,4-CONHMe)][NMeL][NMeL]D-Piperidide; lactam N-11)",0.88,
"CCCCN1CC(=O)N(C)[C@@H](CC(C)C)C(=O)N[C@@H](COCC(C)(C)CO)C(=O)N(C)[C@@H](Cc2ccccc2)C(=O)N(C)[C@@H](CC(C)C)C(=O)N[C@H](C(=O)N2CCCCC2)CC(=O)N[C@H](C(C)C)C(=O)N(C)C(Cc2ccccc2)C(=O)N[C@@H](CC(C)C)C(=O)N(C)[C@@H](CC(C)C)C(=O)N[C@@H]([C@@H](C)O)C1=O (stereo partly drawn) [AP126] ([dV][ξNMeF]L[NMeL]T[NBuGly][NMeL]S(Propyl(2,2-Me2,3-OH))[NMeF][NMeL]D-Piperidide; lactam N-11)",0.14,
"CC[C@H](C)[C@H]1C(=O)N[C@@H]([C@@H](C)O)C(=O)N(C)CC(=O)N(C)[C@@H](CC)C(=O)N[C@H](C(=O)N2CCCCC2)CC(=O)N(C)[C@@H](CC(C)C)C(=O)N[C@@H](Cc2ccc(OC)c(C(=O)NC)c2)C(=O)N(C)[C@@H](CC(C)C)C(=O)N(C)[C@@H](Cc2ccccc2)C(=O)N[C@@H](CC(C)C)C(=O)N(C)[C@@H](CC(C)C)C(=O)N1C [AP39] ([NMeL][Phe(3-CONHMe,4-OMe)][NMeL][NMeF]L[NMeL][NMeI]T[Sar][NMeAbu]D-Piperidide; lactam N-11)",0.01,
CCCN1CC(=O)N(C)[C@@H](CC(C)C)C(=O)N[C@H](C(=O)N2CCCCC2)CC(=O)N(C)[C@@H](C)C(=O)N[C@@H](COCCO)C(=O)N(C)[C@@H](CC(C)C)C(=O)N(C)[C@@H](Cc2cccc(Cl)c2)C(=O)N[C@@H](CC(C)C)C(=O)N(C)[C@@H](CCc2ccccc2)C(=O)N(C)[C@@H](CC(C)C)C(=O)N[C@@H]([C@@H](C)O)C1=O [Compound A05] ([NMeA]S(Ethyl(2-OH))[NMeL][NMePhe(3-Cl)]L[NMehPhe][NMeL]T[NPrGly][NMeL]D-Piperidide; lactam N-11),0.9,
CCCCN1CC(=O)N(C)[C@@H](CC(C)C)C(=O)N(C)[C@@H](CC(C)C)C(=O)N[C@@H](COC(C)(C)C)C(=O)N(C)[C@@H](CC(C)C)C(=O)N[C@H](C(=O)N2CCCCC2)CC(=O)N(C)CC(=O)N(C)[C@@H](Cc2cccc(Cl)c2)C(=O)N[C@@H](Cc2ccc(C(=O)NO)c(OC)c2)C(=O)N(C)[C@@H](CC(C)C)C(=O)N[C@@H]([C@@H](C)O)C1=O [AP260] ([Sar][NMePhe(3-Cl)][X1][NMeL]T[NBuGly][NMeL][NMeL]S(tBu)[NMeL]D-Piperidide; lactam N-11),0.04,
CC(C)C[C@H]1C(=O)N[C@@H](C(C)C)C(=O)N(C)[C@@H](CCc2ccccc2)C(=O)N(C)[C@@H](CCc2ccccc2)C(=O)N[C@@H](CCCCO)C(=O)N(C)[C@@H](CC(C)C)C(=O)N[C@@H]([C@@H](C)O)C(=O)N(C)[C@@H](CC(C)C)C(=O)N(C)[C@@H](CC(C)C)C(=O)N[C@H](C(=O)N2CCCCC2)CC(=O)N(C)CCCC(=O)N1C [Compound B04] ([NMeGABA][NMeL]V[NMehPhe][NMehPhe][X6][NMeL]T[NMeL][NMeL]D-Piperidide; lactam N-11),0.07,
CC(C)C[C@@H]1NC(=O)[C@H](CC(C)C)N(C)C(=O)C[C@@H](C(=O)N2CCCCC2)NC(=O)[C@H](CC(C)C)N(C)C(=O)CN(C)C(=O)[C@H]([C@@H](C)O)NC(=O)[C@H](CC(C)C)N(C)C(=O)[C@H](Cc2ccccc2)N(C)C(=O)[C@H](COCCCO)NC(=O)[C@H](Cc2ccccc2)N(C)C(=O)[C@H](CC(C)C)N(C)C1=O [AP94] ([NMeL]L[NMeL][NMeF]S(Propyl(3-OH))[NMeF][NMeL]T[Sar][NMeL]D-Piperidide; lactam N-11),0.35,
CCCCN1CC(=O)N(C)[C@@H](Cc2ccccc2)C(=O)N[C@@H]([C@@H](C)CC)C(=O)N(C)[C@@H](CC(C)C)C(=O)N[C@@H]([C@@H](C)O)C(=O)N(C)CC(=O)N(C)[C@@H](CCc2ccc(C(=O)NC)c(OC)c2)C(=O)N(C)[C@@H](CC(C)C)C(=O)N[C@@H](COC(C)(C)C)C(=O)N(C)[C@@H](CC(C)C)C(=O)N[C@H](C(=O)N2CCCCC2)CC1=O [AP232] ([NBuGly][NMeF]I[NMeL]T[Sar][NMeHph(3-OMe-4-CONHMe)][NMeL]S(tBu)[NMeL]D-Piperidide; lactam N-11),2,
CCCCN1CC(=O)N(C)[C@@H](CC(C)C)C(=O)N[C@@H](COC(C)(C)C)C(=O)N(C)[C@@H](Cc2ccccc2)C(=O)N(C)[C@@H](C(C)C)C(=O)N[C@H](C(=O)N2CCCCC2)CC(=O)N[C@H](CC(C)C)C(=O)N(C)[C@@H](Cc2ccccc2)C(=O)N[C@@H](CC(C)C)C(=O)N(C)[C@@H](CCN2CCOCC2)C(=O)N[C@@H]([C@@H](C)O)C1=O [pd452] ([dL][NMeF]L[NMeAbu(4-morpholino)]T[NBuGly][NMeL]S(tBu)[NMeF][NMeV]D-Piperidide; lactam N-11),,"Papp (Caco-2, Caco-2): 1.3 ×10⁻⁶ cm/s"
"CCCCN1CC(=O)N(C)[C@@H](Cc2ccccc2)C(=O)N(C)[C@@H](CC(C)C)C(=O)N[C@@H](CC(C)C)C(=O)N(C)[C@@H](CC(C)C)C(=O)N[C@H](C(=O)N2CCCCC2)CC(=O)N(C)CC(=O)N(C)[C@@H](CC(C)C)C(=O)N[C@@H](CCc2ccc(C(=O)NC)c(OC)c2)C(=O)N(C)[C@@H](CC)C(=O)N[C@@H]([C@@H](C)O)C1=O [AP206] ([Sar][NMeL][hPhe(3-OMe,4-CONHMe)][NMeAbu]T[NBuGly][NMeF][NMeL]L[NMeL]D-Piperidide; lactam N-11)",0.86,
"CCCCN1CC(=O)N(C)[C@@H](CC(C)C)C(=O)N[C@@H](Cc2ccc(C(=O)NS(C)(=O)=O)c(OC)c2)C(=O)N(C)[C@@H](CC(C)C)C(=O)N(C)[C@@H](CC(C)C)C(=O)N[C@H](C(=O)N2CCCCC2)CC(=O)N[C@H](CC(C)C)C(=O)N(C)[C@@H](Cc2ccccc2)C(=O)N[C@@H](C(C)C)C(=O)N(C)[C@@H](CC(C)C)C(=O)N[C@@H]([C@@H](C)O)C1=O [AP136] ([dL][NMeF]V[NMeL]T[NBuGly][NMeL][Phe(3-OMe,4-CONHMs)][NMeL][NMeL]D-Piperidide; lactam N-11)",0.47,
CCCCN1CC(=O)N(C)[C@@H](CC(C)C)C(=O)N[C@H](C(=O)N2CCCCC2)CC(=O)N(C)[C@@H](CC(C)C)C(=O)NC[C@@H](COCCO)C(=O)N(C)[C@@H](CC(C)C)C(=O)N(C)[C@@H](Cc2ccccc2)C(=O)N[C@@H](CC(C)C)C(=O)N(C)[C@@H](Cc2ccccc2)C(=O)N(C)[C@@H](CC(C)C)C(=O)N[C@@H]([C@@H](C)O)C1=O [AP131] ([NMeL][X9][NMeL][NMeF]L[NMeF][NMeL]T[NBuGly][NMeL]D-Piperidide; lactam N-11),1.1,
"CNC(=O)c1cc(C[C@@H]2NC(=O)[C@H](CC(C)C)N(C)C(=O)[C@H](CC(C)C)N(C)C(=O)[C@H](CC(C)C)NC(=O)[C@H](CC(C)C)N(C)C(=O)C[C@@H](C(=O)N3CCCCC3)NC(=O)[C@H](CC(C)C)N(C)C(=O)CN(C)C(=O)[C@H]([C@@H](C)O)NC(=O)[C@H](C(C)C)N(C)C(=O)[C@H](CC(C)C)N(C)C2=O)ccc1OC [AP40] ([NMeL]L[NMeL][NMeL][Phe(3-CONHMe,4-OMe)][NMeL][NMeV]T[Sar][NMeL]D-Piperidide; lactam N-11)",0.63,
CC(C)C[C@@H]1NC(=O)[C@H](Cc2ccccc2)N(C)C(=O)C([C@@H](C)O)NC(=O)[C@H](Cc2ccccc2)N(C)C(=O)CN(C)C(=O)[C@H](Cc2ccccc2)NC(=O)[C@H](CC(C)C)N(C)C(=O)[C@H](CC(C)C)NC(=O)[C@H](Cc2ccccc2)N(C)C(=O)[C@H](C)N(C)C(=O)C[C@@H](C(=O)N2CCCCC2)NC1=O (stereo partly drawn) [pd231] ([NMeA][NMeF]L[NMeL]F[Sar][NMeF][ξThr(3R)][NMeF]LD-Piperidide; lactam N-11),,"Papp (Caco-2, Caco-2 (cm/sec) Papp): 0.21 ×10⁻⁶ cm/s"
CC[C@H](C)[C@@H]1NC(=O)[C@H](CC(C)C)N(C)C(=O)[C@@H](C)NC(=O)C[C@@H](C(=O)N2CCCCC2)NC(=O)[C@H](C(C)C)N(C)C(=O)[C@H](CC(C)C)N(C)C(=O)[C@H](COC(C)(C)C)NC(=O)[C@H](CC(C)C)N(C)C(=O)CN(C)C(=O)[C@H](Cc2c[nH]c3ccccc23)NC(=O)[C@H](CC(C)C)N(C)C1=O [pd108] ([dA][NMeL]I[NMeL]W[Sar][NMeL]S(tBu)[NMeL][NMeV]D-Piperidide; lactam N-11),0.87,
CC(C)C[C@H]1C(=O)N(C)[C@@H](Cc2ccccc2)C(=O)N(C)[C@@H](CC(C)C)C(=O)N[C@H](C(=O)N(C)[C@@H](Cc2ccccc2)C(=O)N[C@@H](Cc2ccccc2)C(=O)N2CCCCC2)CC(=O)N[C@H](C(C)C)C(=O)N[C@@H](C)C(=O)N[C@@H]([C@@H](C)O)C(=O)N(C)[C@@H](C)C(=O)N[C@@H](Cc2ccccc2)C(=O)N1C [pd241] ([dV]AT[NMeA]F[NMeL][NMeF][NMeL]D[NMeF]F-Piperidide; lactam N-9),,"Papp (Caco-2, Caco-2 (cm/sec) Papp): 0.058 ×10⁻⁶ cm/s"
CC[C@H]1C(=O)N[C@@H](COC(C)(C)C)C(=O)N(C)[C@@H](Cc2ccccc2)C(=O)N(C)[C@@H](CC(C)C)C(=O)N[C@H](C(=O)N2CCCCC2)CC(=O)N[C@H](CC(C)C)C(=O)N(C)[C@@H](Cc2ccccc2)C(=O)N[C@@H](CC(C)C)C(=O)N(C)[C@@H](CC)C(=O)N[C@@H](COCC(O)C(F)(F)F)C(=O)N(C)CC(=O)N1C (stereo partly drawn) [Compound C10] ([dL][NMeF]L[NMeAbu]S(CH2CH(OH)CF3)[Sar][NMeAbu]S(tBu)[NMeF][NMeL]D-Piperidide; lactam N-11),,"Papp (Caco-2, Caco-2 (membrane permeability)): 0.95 ×10⁻⁶ cm/s"
CC(C)C[C@H]1C(=O)N(C)[C@@H](Cc2ccccc2)C(=O)N(C)[C@@H](Cc2ccccc2)C(=O)N[C@@H]([C@@H](C)O)C(=O)N(C)[C@@H](C)C(=O)N(C)[C@@H](Cc2ccccc2)C(=O)N[C@H](C(=O)N2CCCCC2)CC(=O)N(C)[C@@H](C)C(=O)N(C)[C@@H](CC(C)C)C(=O)N(C)[C@@H](Cc2ccccc2)C(=O)N[C@@H](C)C(=O)N1C [pd232] ([NMeA][NMeL][NMeF]A[NMeL][NMeF][NMeF]T[NMeA][NMeF]D-Piperidide; lactam N-11),,"Papp (Caco-2, Caco-2 (cm/sec) Papp): 0.19 ×10⁻⁶ cm/s"
